For 21 compounds, IC50 results are on record in PubChem BioAssay AID651549 (Sanford-Burnham Center for Chemical Genomics, 2012).

The nature of this experiment: GAPDH and PEG-3 promoter luciferase suppression – cell-based, luminescence, set 2, counter-screen for PEG-3 promoter inhibitor project, dose response (AID 651549). To be noted: HeLa PEG-Prom-luciferase or GAPDH-reporter, 6/24 h. In general terms: A counterscreen serves to expose hits that act by an unwanted route or on another target.

Active and inactive are the calls of the source.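 Rule for the calls: active = compounds blocking the PEG3 reporter with IC50 up to 10 µM at either incubation, yet sparing the GAPDH control reporter; inactive = the rest.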 Bounds are passed on as bounds.

As for `Cn1c(Cl)cnc1C1CC(=O)c2cc(Cl)ccc2O1` (centres undefined), the IC50 (usually the midpoint of a concentration-inhibition curve) by setting is: (GAPDH, run 1, 6 h) “inactive”; (PEG-3, run 1, 6 h) “inactive”; (PEG-3, run 1, 24 h) “inactive”. Besides, the IC50 (GAPDH, run 1, 24 h) is 9.11 µM.
For `COc1ccc(Nc2ncnc3ccc(Br)cc23)c(OC)c1`, the 50% inhibitory concentration (IC50) is, setting by setting: (GAPDH, run 1, 6 h) 1.16 µM; (GAPDH, run 1, 24 h) 1.68 µM; (PEG-3, run 1, 6 h) 1.05 µM; (PEG-3, run 1, 24 h) 0.798 µM.
As to `COc1ccc2[nH]c(=O)c(CN(Cc3cccnc3)S(=O)(=O)c3ccccc3F)cc2c1`, the IC50 entry reads like this: (GAPDH, run 1, 6 h) “inactive”; (PEG-3, run 1, 24 h) “inactive”. For the same compound, the IC50 was 5.38 µM (GAPDH, run 1, 24 h) and > 99 µM (inactive) (PEG-3, run 1, 6 h).
As for `Cc1c(/C(O)=C2/C(=O)C(=O)N(Cc3cccnc3)C2c2ccccn2)cnn1-c1ccccc1` (centres undefined), the IC50 (GAPDH, run 1, 6 h) is 1.01 µM; the IC50 (GAPDH, run 1, 24 h) is 1.92 µM; the IC50 (PEG-3, run 1, 6 h) was 1.58 µM; the IC50 (PEG-3, run 1, 24 h) is 5.27 µM.
In the case of `NC(=O)c1cc([N+](=O)[O-])ccc1NCc1ccc(N)cc1`, the IC50 entry (GAPDH, run 1, 6 h) is “inactive”; the IC50 result (GAPDH, run 1, 24 h) is “inactive”; the IC50 result (PEG-3, run 1, 6 h) was “inactive”. For the same compound, for the setting “PEG-3, run 1, 24 h”, the IC50 was 7.33 µM.
On to `O=C(O)c1ccc(Nc2nc3c(s2)CCCC3)cc1`, for which the IC50 by setting is: (GAPDH, run 1, 6 h) 8.49 µM; (GAPDH, run 1, 24 h) 9.1 µM. The IC50 result by setting is: (PEG-3, run 1, 6 h) “inactive”; (PEG-3, run 1, 24 h) “inactive”.
For `O=C(c1ccco1)N1CCN(C(c2ccccc2Cl)c2nnnn2Cc2cccs2)CC1` (centres undefined), the IC50 entry (GAPDH, run 1, 6 h) was “inactive”; the IC50 result (GAPDH, run 1, 24 h) was “inactive”; the IC50 result (PEG-3, run 1, 24 h) was “inactive”. Besides, the IC50 (PEG-3, run 1, 6 h) was > 99 µM (inactive).
In the case of `CCOc1ccc(-n2cc(-c3ccccc3)c3c(N4CCOCC4)ncnc32)cc1`, the IC50 is, setting by setting: (GAPDH, run 1, 6 h) > 99 µM (inactive); (GAPDH, run 1, 24 h) > 99 µM (inactive); (PEG-3, run 1, 6 h) > 99 µM (inactive); (PEG-3, run 1, 24 h) > 99 µM (inactive).
With `CC(=O)OC1CC2(O)C3CCC4CC(O)CCC4(C)C3CCC2(C)C1C1=CC(=O)OC1` (centres undefined), the IC50 is 0.416 µM (GAPDH, run 1, 6 h); 0.458 µM (GAPDH, run 1, 24 h); > 99 µM (inactive) (PEG-3, run 1, 6 h); 0.499 µM (PEG-3, run 1, 24 h).
For `CC(=O)c1sc2c(c1OC(=O)c1ccc(Cl)cc1Cl)c(=O)n(-c1ccccc1)c(=S)n2-c1ccccc1`, the IC50 reads like this: (GAPDH, run 1, 6 h) 0.853 µM; (GAPDH, run 1, 24 h) 0.766 µM; (PEG-3, run 1, 6 h) > 99 µM (inactive); (PEG-3, run 1, 24 h) 5.59 µM.
As for `Cc1oc(-c2ccc3c(c2)OCCO3)cc1C(=O)O`, the IC50 was 4.9 µM (GAPDH, run 1, 6 h); 7.36 µM (GAPDH, run 1, 24 h); 7.66 µM (PEG-3, run 1, 6 h). Further, the IC50 result (PEG-3, run 1, 24 h) is “inactive”.
In the case of `Cc1ccc(C)c(S(=O)(=O)N2CCN(c3ncnc4sccc34)CC2)c1`, the IC50 entry is, setting by setting: (GAPDH, run 1, 6 h) “inactive”; (PEG-3, run 1, 6 h) “inactive”. Further, the IC50 is, setting by setting: (GAPDH, run 1, 24 h) 2.54 µM; (PEG-3, run 1, 24 h) 2.18 µM.
Turning to `Cc1ccc(-c2cn3nc(C)c(C)nc3n2)cc1`, the IC50 result was “inactive” (GAPDH, run 1, 6 h) and “inactive” (PEG-3, run 1, 6 h). For the same compound, the IC50 by setting is: (GAPDH, run 1, 24 h) > 99 µM (inactive); (PEG-3, run 1, 24 h) > 99 µM (inactive).
On to `COc1cc2nc(CN3CC=C(c4ccccc4)CC3)[nH]c(=O)c2cc1OC`, for which the IC50 entry was “inactive” (GAPDH, run 1, 6 h); “inactive” (GAPDH, run 1, 24 h); “inactive” (PEG-3, run 1, 6 h); “inactive” (PEG-3, run 1, 24 h).
As for `CC(=O)c1cccc(-c2ccnc3c2CC(C(=O)Nc2cccc(NS(C)(=O)=O)c2)O3)c1` (centres undefined), the IC50 entry is “inactive” (GAPDH, run 1, 6 h) and “inactive” (PEG-3, run 1, 24 h). In addition, the IC50 is, setting by setting: (GAPDH, run 1, 24 h) 8.62 µM; (PEG-3, run 1, 6 h) > 99 µM (inactive).
For the compound `C[C@]12CC[C@H]3C(CCC4(O)CC(O)CC[C@]34C=O)C1=CC[C@H]2c1ccc(=O)oc1` (some centres undefined), the IC50 runs as follows: (GAPDH, run 1, 6 h) 3.59 µM; (PEG-3, run 1, 6 h) 1.52 µM; (PEG-3, run 1, 24 h) 7.64 µM. Further, the IC50 result (GAPDH, run 1, 24 h) is “inactive”.
For `Cc1c(CN2CCC(CO)(CCOc3ccccc3)CC2)[nH]c2c(Cl)cccc12` the same measures were “inactive”, “inactive”, “inactive” and “inactive”.
On to `NS(=O)(=O)c1ccc(CCNc2nn3c(-c4ccc(F)c(Cl)c4)cnc3s2)cc1`, for which the IC50 entry (GAPDH, run 1, 6 h) is “inactive” and the IC50 result (PEG-3, run 1, 6 h) was “inactive”. Also, the IC50 runs as follows: (GAPDH, run 1, 24 h) 2.38 µM; (PEG-3, run 1, 24 h) 2.99 µM.
As to `COCCn1c(C)cc(C(=O)COc2ccc(C)nc2[N+](=O)[O-])c1C`, the IC50 result (GAPDH, run 1, 6 h) is “inactive”; the IC50 result (GAPDH, run 1, 24 h) is “inactive”; the IC50 result (PEG-3, run 1, 6 h) is “inactive”; the IC50 result (PEG-3, run 1, 24 h) was “inactive”.
On to `Cc1nc2c(-c3ccc(Cl)cc3)c(C)[nH]n2c(=O)c1Cc1ccccc1`, for which the IC50 result (GAPDH, run 1, 6 h) is “inactive”. The IC50 was 1.74 µM (GAPDH, run 1, 24 h); > 99 µM (inactive) (PEG-3, run 1, 6 h); 2.21 µM (PEG-3, run 1, 24 h).
Regarding `Cc1ccc2nc(NC(=O)CSCC(=O)OCC(=O)c3ccccc3)sc2c1`, the IC50 entry (GAPDH, run 1, 6 h) is “inactive”; the IC50 entry (PEG-3, run 1, 6 h) is “inactive”; the IC50 entry (PEG-3, run 1, 24 h) is “inactive”. Besides, the IC50 (GAPDH, run 1, 24 h) was 5.63 µM.
